pIC50: −log10 of the molar value.
Columns and labels:
[1] = system: MV4-11 cells (FLT3-ITD+/+); assay: Inhibition of cell proliferation by MTT experiment, MV4-11; type: cell-based, human; conditions: Homo sapiens, MV4-11; MTT, 72 h; read-out: IC50 value on cell proliferation inhibition, MV4-11 FLT3-ITD+/+
How it was run: (§1)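 MTT assay in MV4-11, MOLM-13 (FLT3-ITD) and SET-2 (JAK2 V617F) cells at 10,000–15,000 cells/well in IMDM with 10% FBS. Cells are exposed to compound for 72 h at 37 °C, then to MTT for 1–3 h. IC50 is fitted from inhibition rates across concentrations.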

[2] = system: MOLM-13 cells (FLT3-ITD-/+); assay: Inhibition of cell proliferation by MTT experiment, MOLM-13; type: cell-based, human; conditions: Homo sapiens, MOLM-13; MTT, 72 h; read-out: IC50 value on cell proliferation inhibition, MOLM-13 FLT3-ITD-/+
How it was run: as §1

[3] = system: SET-2 cells (JAK2 V617F); assay: Inhibition of cell proliferation by MTT experiment, SET-2; type: cell-based; conditions: Homo sapiens, SET-2; MTT, 72 h; read-out: IC50 value on cell proliferation inhibition, SET-2 (V617F)
How it was run: as §1

[4] = biological target: T1, FLT3 (Homo sapiens, UniProt P36888); assay: In vitro kinase activity experiment, FLT3; type: biochemical; conditions: for inhibition at 0.5 µM: 40 min, inhibition rate of enzyme at 500 nM, measured by Eurofins, read-out: Kinase activity @ 500 nM (%) FLT3
T1 construct: purchased Eurofins
T1 sequence (P36888 27-993): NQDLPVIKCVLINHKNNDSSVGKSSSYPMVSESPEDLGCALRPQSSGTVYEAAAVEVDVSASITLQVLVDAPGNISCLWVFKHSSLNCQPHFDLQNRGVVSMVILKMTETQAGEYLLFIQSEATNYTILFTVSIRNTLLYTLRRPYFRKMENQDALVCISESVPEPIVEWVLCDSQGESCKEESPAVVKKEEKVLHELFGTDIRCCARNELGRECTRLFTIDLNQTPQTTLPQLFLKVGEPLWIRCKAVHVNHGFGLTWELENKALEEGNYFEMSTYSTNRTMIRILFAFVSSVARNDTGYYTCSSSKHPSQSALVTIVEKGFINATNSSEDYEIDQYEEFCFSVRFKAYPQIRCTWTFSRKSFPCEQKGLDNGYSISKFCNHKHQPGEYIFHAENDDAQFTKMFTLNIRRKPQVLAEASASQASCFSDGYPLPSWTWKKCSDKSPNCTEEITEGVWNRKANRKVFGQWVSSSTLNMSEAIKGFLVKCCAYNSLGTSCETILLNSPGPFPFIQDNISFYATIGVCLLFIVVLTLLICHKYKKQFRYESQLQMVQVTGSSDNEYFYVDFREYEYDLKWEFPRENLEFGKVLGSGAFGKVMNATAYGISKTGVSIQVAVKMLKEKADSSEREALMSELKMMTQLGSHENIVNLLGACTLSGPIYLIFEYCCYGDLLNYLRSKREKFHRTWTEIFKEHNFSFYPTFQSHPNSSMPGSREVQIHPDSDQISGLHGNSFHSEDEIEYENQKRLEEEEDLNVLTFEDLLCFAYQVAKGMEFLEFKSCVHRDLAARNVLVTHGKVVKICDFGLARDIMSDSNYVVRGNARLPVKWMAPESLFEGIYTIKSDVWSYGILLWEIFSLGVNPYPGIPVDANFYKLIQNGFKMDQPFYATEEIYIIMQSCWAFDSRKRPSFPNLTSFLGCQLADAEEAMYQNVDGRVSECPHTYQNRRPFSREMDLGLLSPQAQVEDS
How it was run: (§2)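 Radiometric filter-binding assay: kinase, its substrate and compound in 8 mM MOPS pH 7.0, 0.2 mM EDTA, 10 mM MnCl2, with 10 mM magnesium acetate and γ33P-ATP; MgATP started the reaction, 40 min at room temperature. Stopped with 3% phosphate, spotted on Filtermat A, washed, scintillation counted.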

[5] = biological target: T2, JAK2 (Homo sapiens, UniProt O60674); assay: In vitro kinase activity experiment, JAK2; type: biochemical; conditions: for Kinase activity @ 500 nM (%) JAK2: inhibition rate of enzyme at 500 nM, measured by Eurofins
T2 construct: purchased Eurofins
How it was run: as §2

[6] = biological target: T3, JAK1 (Homo sapiens, UniProt P23458); assay: In vitro kinase activity experiment, JAK1; type: biochemical
T3 construct: purchased Eurofins
Protocol: (§3) Buffer solution ([…], pH 7.0, 0.2 mm EDTA, 10 mM mncl2), kinase to be tested, substrate of kinase to be tested, 10 mM magnesium acetate and γ33P-ATP solution, and compounds with different concentrations were added to a reaction tube in turn, then MgATP was added to initiate the enzyme reaction process, and incubated at room temperature for 40 min. Then, the reaction was terminated with 5 μl of […], and 10 μl of the reaction solution was titrated onto the Filtermat A membrane, washed with 75 mM phosphate solution for three times, each time for 5 min., and then washed with methanol once. Finally, the Filtermat A membrane was dried and the scintillation count was carried out.

[7] = biological target: T4, JAK3 (Homo sapiens, UniProt P52333); assay: In vitro kinase activity experiment, JAK3; type: biochemical
T4 construct: purchased Eurofins
T4 sequence (P52333 1-1124): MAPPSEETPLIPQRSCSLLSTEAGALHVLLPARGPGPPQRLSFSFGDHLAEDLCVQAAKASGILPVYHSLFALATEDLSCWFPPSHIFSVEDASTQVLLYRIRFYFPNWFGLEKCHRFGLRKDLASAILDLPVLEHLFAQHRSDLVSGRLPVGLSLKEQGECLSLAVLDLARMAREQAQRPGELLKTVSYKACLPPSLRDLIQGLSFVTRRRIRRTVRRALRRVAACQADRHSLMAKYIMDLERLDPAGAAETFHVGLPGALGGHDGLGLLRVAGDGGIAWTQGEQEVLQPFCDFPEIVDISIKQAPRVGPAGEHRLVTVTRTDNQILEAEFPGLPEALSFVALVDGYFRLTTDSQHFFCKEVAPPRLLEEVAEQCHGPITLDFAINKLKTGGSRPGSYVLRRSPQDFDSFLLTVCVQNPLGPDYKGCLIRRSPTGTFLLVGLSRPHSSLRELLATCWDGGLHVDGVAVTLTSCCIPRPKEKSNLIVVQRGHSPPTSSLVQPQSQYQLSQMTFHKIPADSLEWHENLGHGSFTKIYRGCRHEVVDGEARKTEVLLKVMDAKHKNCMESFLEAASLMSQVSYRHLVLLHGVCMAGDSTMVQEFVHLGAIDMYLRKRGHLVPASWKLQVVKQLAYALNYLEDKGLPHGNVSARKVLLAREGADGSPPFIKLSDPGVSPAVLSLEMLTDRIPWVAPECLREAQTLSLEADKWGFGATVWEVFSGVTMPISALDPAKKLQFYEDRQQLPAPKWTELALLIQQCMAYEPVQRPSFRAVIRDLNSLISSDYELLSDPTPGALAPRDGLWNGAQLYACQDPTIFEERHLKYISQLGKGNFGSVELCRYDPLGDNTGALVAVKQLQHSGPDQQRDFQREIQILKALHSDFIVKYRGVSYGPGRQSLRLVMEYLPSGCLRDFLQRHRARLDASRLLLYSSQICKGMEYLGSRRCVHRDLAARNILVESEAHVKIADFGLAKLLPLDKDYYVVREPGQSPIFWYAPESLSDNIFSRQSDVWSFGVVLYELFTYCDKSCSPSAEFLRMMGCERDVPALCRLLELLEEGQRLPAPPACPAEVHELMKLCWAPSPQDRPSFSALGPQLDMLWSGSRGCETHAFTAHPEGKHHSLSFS
Protocol: as §3

[8] = system: Ba/F3-EpoR-JAK2V617F cells; assay: Ba/F3-EpoR-JAK2V617F-driven malignant tumor mouse model; type: in vivo, Babl/c-nude mice; conditions: 30 mg/Kg, oral twice a day
Protocol: Babl/c-nude mice (Beijing Huafukang Biotechnology Co., Ltd.) were received and acclimated to the environment until these mice were normalized in diet and activity, and the modeling began. Ba/F3-EpoR-JAK2V617F cells (State Key Laboratory of Biotherapy, Sichuan University) were routinely incubated and grew to 80% fusion degree. Then the cells were centrifuged at 1000 rpm for 3 min., collected, resuspended by PBS and counted by a cell counter; while the survival rate of the cells was calculated. Only when the proportion of living cells exceeds 90%, can the cells be used in the experiment, with the cell concentration adjusted to 1×10^7 cells/mL. After the cells were collected, the cell suspension was pre-cooled on ice. Each mouse was inoculated as per 1.0×10^6, and batch induction modeling was carried out.

[9] = system: JAK2V617F; assay: JAK2V617F-induced myelofibrosis mouse model; type: in vivo, BALB/c mice; conditions: 30 mg/Kg, oral twice a day, after 8 weeks of treatment
Text: JAK2 mutant JAK2V617F gene vector MSCV-JAK2V617F-GFP (Chengdu Wandao Biotechnology Development Co., Ltd.) and BALB/c mice (Jiangsu Jicui Yaokang Biotechnology Co., Ltd.) were provided as donors. The mouse bone marrow cells were sampled and infected with JAK2V617F virus, and the infected cells were reinfused into BALB/c recipient mice irradiated by X-rays through tail vein. Then, the JAK2V617F-positive myelofibrosis mouse model was induced. […] The administration route was oral administration twice a day, and the mice in the blank control group and the model group took the same volume of normal saline orally. […] Therefore, modifications or improvements made without departing from the spirit of the present invention are within the scope of protection of the present invention.

T3 sequence (P23458 whole entry): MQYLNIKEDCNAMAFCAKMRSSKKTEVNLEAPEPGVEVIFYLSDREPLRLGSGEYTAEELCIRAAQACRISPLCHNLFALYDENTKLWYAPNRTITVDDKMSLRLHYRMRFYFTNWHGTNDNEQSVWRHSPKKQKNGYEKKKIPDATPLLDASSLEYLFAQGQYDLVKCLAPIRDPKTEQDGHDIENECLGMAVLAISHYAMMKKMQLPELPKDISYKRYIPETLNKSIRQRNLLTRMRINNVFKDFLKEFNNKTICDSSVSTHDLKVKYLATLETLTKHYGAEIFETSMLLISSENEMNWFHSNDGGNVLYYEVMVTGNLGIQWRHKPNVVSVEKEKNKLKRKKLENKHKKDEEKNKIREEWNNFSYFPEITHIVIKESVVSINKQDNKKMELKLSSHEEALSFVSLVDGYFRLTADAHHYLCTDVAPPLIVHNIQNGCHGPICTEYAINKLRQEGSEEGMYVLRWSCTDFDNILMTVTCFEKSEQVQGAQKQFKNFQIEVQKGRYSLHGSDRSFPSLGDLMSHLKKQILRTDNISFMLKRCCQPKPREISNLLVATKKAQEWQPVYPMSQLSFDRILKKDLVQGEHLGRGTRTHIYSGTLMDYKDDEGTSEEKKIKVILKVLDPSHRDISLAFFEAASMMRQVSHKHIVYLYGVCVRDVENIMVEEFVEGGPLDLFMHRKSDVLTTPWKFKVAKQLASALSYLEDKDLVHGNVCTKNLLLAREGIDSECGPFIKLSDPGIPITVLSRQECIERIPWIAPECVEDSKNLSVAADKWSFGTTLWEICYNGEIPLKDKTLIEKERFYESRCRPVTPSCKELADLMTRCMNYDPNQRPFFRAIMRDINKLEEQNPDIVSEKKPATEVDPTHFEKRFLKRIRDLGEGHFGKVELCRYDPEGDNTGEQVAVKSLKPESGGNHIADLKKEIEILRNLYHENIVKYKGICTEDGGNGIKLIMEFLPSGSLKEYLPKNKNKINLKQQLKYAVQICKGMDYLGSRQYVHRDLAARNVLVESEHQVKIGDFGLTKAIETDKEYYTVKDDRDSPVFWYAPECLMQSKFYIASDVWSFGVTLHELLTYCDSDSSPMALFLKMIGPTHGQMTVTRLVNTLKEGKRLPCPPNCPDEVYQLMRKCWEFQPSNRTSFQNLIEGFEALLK
T2 sequence (O60674 whole entry): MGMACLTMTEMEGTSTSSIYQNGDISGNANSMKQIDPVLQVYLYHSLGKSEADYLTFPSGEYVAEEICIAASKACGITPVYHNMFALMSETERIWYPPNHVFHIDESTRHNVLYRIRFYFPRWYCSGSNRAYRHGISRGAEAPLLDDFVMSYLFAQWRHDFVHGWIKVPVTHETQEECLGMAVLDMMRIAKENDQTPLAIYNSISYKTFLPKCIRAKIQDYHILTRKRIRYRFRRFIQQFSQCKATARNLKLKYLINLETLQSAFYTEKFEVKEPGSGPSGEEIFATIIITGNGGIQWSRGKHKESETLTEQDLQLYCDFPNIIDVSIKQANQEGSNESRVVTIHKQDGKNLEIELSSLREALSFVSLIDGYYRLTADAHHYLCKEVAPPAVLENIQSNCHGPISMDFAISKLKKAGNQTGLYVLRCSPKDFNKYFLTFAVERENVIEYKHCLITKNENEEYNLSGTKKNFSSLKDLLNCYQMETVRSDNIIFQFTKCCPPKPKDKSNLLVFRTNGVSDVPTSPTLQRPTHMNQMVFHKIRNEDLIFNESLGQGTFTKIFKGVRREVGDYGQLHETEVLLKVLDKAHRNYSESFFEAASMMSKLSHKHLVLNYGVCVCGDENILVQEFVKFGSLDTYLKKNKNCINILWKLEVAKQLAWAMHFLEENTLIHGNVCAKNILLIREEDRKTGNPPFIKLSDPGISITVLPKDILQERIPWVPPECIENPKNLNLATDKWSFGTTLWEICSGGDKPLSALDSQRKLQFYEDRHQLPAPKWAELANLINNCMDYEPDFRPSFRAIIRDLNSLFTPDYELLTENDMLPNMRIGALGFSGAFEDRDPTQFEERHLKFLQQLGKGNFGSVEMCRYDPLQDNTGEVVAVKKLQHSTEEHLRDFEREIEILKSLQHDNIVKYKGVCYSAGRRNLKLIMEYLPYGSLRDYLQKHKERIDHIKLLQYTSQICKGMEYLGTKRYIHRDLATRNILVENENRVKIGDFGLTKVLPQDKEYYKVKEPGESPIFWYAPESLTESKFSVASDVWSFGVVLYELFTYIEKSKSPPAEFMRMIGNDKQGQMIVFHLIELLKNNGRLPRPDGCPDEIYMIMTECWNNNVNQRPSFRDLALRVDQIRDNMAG

Row | Structure (SMILES) | pIC50 [1] | pIC50 [2] | pIC50 [3] | pIC50 [4] | inhibition at 0.5 µM [4] [%] | pIC50 [5] | Kinase activity @ 500 nM (%) JAK2 [5] [%] | pIC50 [6] | pIC50 [7] | inhibition of spleen growth [8] [%] | inhibition of growth rate of spleen [9] [%]
1 | Cc1cnc(Nc2ccc(N3CCC(N(C)C)CC3)c(F)c2)nc1-c1cnn(C(C)C)c1 [CLJ-38, 5-methyl-N-(3-fluoro-4-(4-dimethylaminopiperidine-1-yl)phenyl)-4-(1-isopropyl-1H-pyrazole-4-yl) pyrimidine-2-amine] | 7.00 to 8.00 | 6.00 to 7.00 | 6.00 to 7.00 | 8.05 | 72 | 8.70 | 93 | 7.24 | – | – | –
2 | Cc1cnc(Nc2ccc(N3CCC(N(C)CC4CC4)CC3)c(F)c2)nc1-c1cnn(C(C)C)c1 [CLJ-52, 5-methyl-N-(3-fluoro-4-(4-N-cyclopropanemethyl-4-N-methylaminopiperidine-1-yl)phenyl)-4-(1-isopropyl-1H-pyrazole-4-yl) pyrimidine-2-amine] | 8.00 to 9.00 | 7.00 to 8.00 | 6.00 to 7.00 | 8.05 | 102 | 9.00 | 106 | 7.33 | 7.64 | – | –
3 | Cc1cnc(Nc2ccc(N3CCC(N(C)CCO)CC3)c(F)c2)nc1-c1cn(C(C)C)nc1S(C)(=O)=O [CLJ-91, 5-methyl-N-(3-fluoro-4-(4-N-hydroxyethyl-4-N-methylaminopiperidine-1-yl)phenyl)-4-(1-isopropyl-3-methylsulfonyl-1H-pyrazole-4-yl) pyrimidine-2-amine] | 7.00 to 8.00 | 7.00 to 8.00 | 6.00 to 7.00 | 7.96 | 97 | 8.52 | 100 | 6.92 | 6.99 | – | –
4 | Cc1cnc(Nc2ccc(NS(=O)(=O)c3ccc(C(F)(F)F)cc3)c(F)c2)nc1-c1cnn(C(C)C)c1 [CLJ-94, N-(2-fluoro-4-((4-(1-isopropyl-1H-pyrazole-4-yl)-5-methylpyrimidine-2-yl)amino)phenyl)-4-(trifluoromethyl) benzenesulfonamide] | 7.00 to 8.00 | 7.00 to 8.00 | 6.00 to 7.00 | 7.82 | 94 | 8.70 | 99 | 7.12 | 7.41 | – | –
5 | Cc1cnc(Nc2ccc(OCCN3CCCC3)cc2)nc1Nc1cccc(S(=O)(=O)NC(C)(C)C)c1 [Fedratinib, reference compound] | – | – | – | – | – | – | – | – | – | 40.23 | 29.46

Reference: patent publication US12428394B2, “2,4-disubstituted pyrimidine derivative, preparation method therefor and use thereof” (CHENGDU ZENITAR BIOMEDICAL TECHNOLOGY CO., LTD., priority 2019, dated 2025)
